In US4759917A, “Oxidative dissolution of gallium arsenide and separation of gallium from arsenic” (priority 1987, dated 1988):
Counter-ions that a name gives are not always drawn. Like-named read-outs stand apart in the source and are kept apart here.

Test: Example 2: complexing agents with hydrogen peroxide to oxidize and dissolve gallium arsenide (Table 3)
[1] = observation during about 10 min stirring with heating to 85° C., H2O2
[2] = 0.5 g GaAs, 20 ml water, 5 ml 30% H2O2, heated to 85° C. about 10 min, then about four days at room temp.

With CCCCCCCC(=O)NO [octanohydroxamic acid] the “Initial Result: % dissolved in 24 hrs.” value (1.48 grams, omitted heating, 24 hrs.) was 52.5% and the “% Ga in Solution After 4 Days (after addn. of 10 ml n-BuOH)” value (omitted heating, after addn. of 10 ml n-BuOH, H2O2) was 100%.

For O=P([O-])([O-])OP(=O)([O-])OP(=O)([O-])[O-].[Na+].[Na+].[Na+].[Na+].[Na+] [Sodium Triphosphate], the “% Ga in Solution After 4 Days” value was 100%.

With CC(O)(P(=O)(O)O)P(=O)(O)O [Dequest ® 2010] the “% Ga in Solution After 4 Days” value was 100% and the “effectiveness in reaction and dissolution of gallium arsenide” value (shortened to “effectiveness”) (H2O2 as oxidizing agent) was “works well”.

With O=P([O-])([O-])OP(=O)([O-])[O-].[Na+].[Na+].[Na+].[Na+] [Sodium pyrophosphate Na4 P2 O7, Sodium pyrophosphate] the “% Ga in Solution After 4 Days” value was 100%, the “Initial Result” value was “white prec” and the “Initial Result: time to complete reaction (min)” value was 3.

For O=C(O)CC(O)(CC(=O)O)C(=O)O [Sodium citrate], the “% Ga in Solution After 4 Days” value was 100%.

With Oc1cccc2cccnc12 [Oxine (8-hydroxy quinoline), 8-hydroxy quinoline] the “Initial Result” value was “Precipitate”.

For O=P(O)(O)O [Potassium phosphate (K3 PO4), Potassium phosphate], the “% Ga in Solution After 4 Days” value was 100% and the “Initial Result: time to complete reaction (secs)” value was 50.

For CCCCCCCCCc1ccc(O)cc1 [4-nonylphenol], the “% Ga in Solution After 4 Days” value was 0% and the “Initial Result” value was “No reaction”.

For CCCCCCCCCCCC(=O)NO [dodecanohydroxamic acid], the “effectiveness” value (H2O2 as oxidizing agent) was “reaction did not occur”, the “Initial Result” value [1] was “No reaction” and the “% Ga in Solution After 4 Days (omitted heating)” value (from here on “% Ga … (omitted heating)”) (omitted heating, H2O2) was 100%. For the same compound, the “Initial Result: time to complete reaction” value (with 10 ml 2-ethyl hexanol, omitted heating, H2O2) was 6 h, the “Initial Result in 15 min.” value (with 10 ml 2-ethyl hexanol, omitted heating, mild exotherm, 15 min.) was “Some reaction” and the “time for complete reaction” value (with a solvent (Test ε)) was “about 6 hours”.

With O=C(O)C(=O)O [Sodium oxalate] the “% Ga in Solution After 4 Days” value was 100%, the “Initial Result: time to complete reaction” value (heating to 85° C., H2O2) was 0.0167 h and the “Initial Result” value [1] was “small prec”.

In the case of CC(=O)NO [Acetohydroxamic Acid], the “Initial Result: time to complete dissolution” value is reported as 25 min, the “Initial Result: % reacted in 30 min.” value (0.62 grams, omitted heating, 30 min.) is reported as 80% and the “% Ga … (omitted heating)” value (omitted heating, H2O2) is reported as 100%.

For C=CC(CC(C)(C)CC(C)(C)C)c1ccc2cccnc2c1O (centres unmarked) [Kelex ® 100], the “% Ga in Solution After 4 Days” value was 0%.

In the case of O=P([O-])(O)O.[Na+] [Monobasic sodium phosphate (NaH2 PO4), Monobasic sodium phosphate], the “% Ga in Solution After 4 Days” value [2] is reported as 0% and the “Initial Result” value [1] is reported as “No reaction”.

In the case of CCCCC(CC)COP(=O)(O)OCC(CC)CCCC (centres unmarked) [Di-(2-ethylhexyl) phosphoric acid], the “% Ga in Solution After 4 Days” value is reported as 0% and the “Initial Result” value is reported as “No reaction”.

For O=C(O)CN(CCN(CC(=O)O)CC(=O)O)CC(=O)O [Ethylene diamine tetracetic acid], the “% Ga in Solution After 4 Days” value was 84.2%.

In the case of [Na+].[OH-] [NaOH, sodium hydroxide], the “% Ga in Solution After 4 Days” value is reported as 100%.

For O=P([O-])([O-])O.[Na+].[Na+] [Disbasic Sodium phosphate (Na2 HPO4), Disbasic Sodium phosphate], the “% Ga in Solution After 4 Days” value was 100% and the “effectiveness” value was “effective in causing dissolution, but at a slow rate and with some white precipitate formation”.

For CC(=O)N(C)O [Nmethyl acetohydroxamic acid, N-methyl acetohydroxamic acid], the “Initial Result: time to complete dissolution” value was 5 min, the “Initial Result: % reacted in 10 min.” value (0.80 grams, omitted heating, 10 min.) was 90% and the “effectiveness” value (H2O2 as oxidizing agent) was “the chelated gallium does not readily separate from the aqueous oxidation medium”. For the same compound, the “% Ga … (omitted heating)” value (omitted heating, H2O2) was 100%.

For O.O=P([O-])(O)O.[Na+] [NaH2 PO4.H2 O], the “% Ga in Solution After 4 Days” value [2] was 0% and the “Initial Result” value [1] was “No reaction”.
